The text below walks through data of patent publication US20250162979A1, “P-DIPHENYL COMPOUND DERIVATIVE MIXTURE AND METHOD OF PRODUCING THE SAME” (HODOGAYA CHEMICAL CO., LTD., priority 2021, published 2025).

This data set in a line: Solubility in organic solvent, checked visually at room temperature. In kind it is physicochemical. As to conditions: room temperature (25±5° C.), stirred 3 to 5 minutes, visual check, % (w/w).

SMILES strings stand for the structures.

For the compound `Cc1ccc(N(c2ccccc2)c2ccc(-c3ccc(N(c4ccccc4)c4ccc(C)cc4)cc3)cc2)cc1` [A-1, 4,4′-bis(4-methyldiphenylamino)-p-diphenyl], the “Solubility in THF” value (10 g tetrahydrofuran) is on record as 49.9%. Under “10 g toluene”, this compound returned a Solubility in toluene of 24.2%.
